Assay results: patent US9629365B2, “Macrocyclic picolinamides compounds with fungicidal activity” (DOW AGROSCIENCES LLC, priority 2013, dated 2017)
Where two headings read alike, the source gives them in different places.

Assays:
Alternaria solani = test: Tomato Early Blight (ALTESO) fungicidal activity; assay type: in vivo; conditions: 24 h, 1 Day Protectant, tomato plants, read-out: ALTESO Disease Control 1DP
Erysiphe cichoracearum = test: Powdery Mildew of Cucumber (ERYSCI) fungicidal activity; assay type: in vivo; conditions: Golovinomyces cichoracearum, topical, 24 h, 1 Day Protectant, cucumber seedlings, read-out: ERYSCI Disease Control 1DP
[1] = tested on: Glomerella lagenarium; Anamorph: Colletotrichum lagenarium; test: Cucumber Anthracnose (COLLLA) fungicidal activity; assay type: in vivo; conditions: Colletotrichum orbiculare, 24 h, 1 Day Protectant, cucumber seedlings, read-out: COLLLA Disease Control 1DP
Puccinia triticina = test: Wheat Brown Rust (PUCCRT) fungicidal activity; assay type: in vivo; conditions: for pest or weed control at 100 ppm: rate 100 ppm (high volume application); for pest or weed control at 121.5 g/ha: rate 121.5 g/H (low volume application)
Description: (§1) Technical grades of materials were dissolved in acetone, which were then mixed with nine volumes of water containing 110 ppm Triton X-100. The fungicide solutions were applied onto wheat seedlings using an automated booth sprayer to run-off. All sprayed plants were allowed to air dry prior to further handling. All fungicides were evaluated using the aforementioned method for their activity vs. all target diseases. Wheat leaf blotch and brown rust activity were also evaluated using track spray applications, in which case the fungicides were formulated as EC formulations, containing 0.1% Trycol 5941 in the spray solutions. Wheat plants (variety Yuma) were grown from seed in a greenhouse in 50% mineral soil/50% soil-less Metro mix until the first leaf was fully emerged, with 7-10 seedlings per pot. These plants were inoculated with an aqueous spore suspension of Septoria tritici either prior to or after fungicide treatments. After inoculation the plants were kept in 100% relative humidity (one day in a dark dew chamber followed by two to three days in a lighted dew chamber at 20° C.) to permit spores to germinate and infect the leaf. The plants were then transferred to a greenhouse set at 20° C. for disease to develop. When disease symptoms were fully expressed on the 1st leaves of untreated plants, infection levels were assessed on a scale of 0 to 100 percent disease severity. Percent disease control was calculated using the ratio of disease severity on treated plants relative to untreated plants. Wheat plants (variety Yuma) were grown from seed in a greenhouse in 50% mineral soil/50% soil-less Metro mix until the first leaf was fully emerged, with 7-10 seedlings per pot. These plants were inoculated with an aqueous spore suspension of Puccinia triticina either prior to or after fungicide treatments. After inoculation the plants were kept in a dark dew room at 22° C. with 100% relative humidity overnight to permit spores to germinate and infect the leaf. The plants were then transferred to a greenhouse set at 24° C. for disease to develop. Fungicide formulation, application and disease assessment followed the procedures as described in the Example A.

[2] = tested on: Blumeria graminis f. Sp. Hordei; test: Barley Powdery Mildew (ERYSGH) fungicidal activity; assay type: in vivo; conditions: 24 h, 1 Day Protectant, barley seedlings, read-out: ERYSGH Disease Control 1DP
[3] = tested on: Magnaporthe grisea; Anamorph: Pyricularia oryzae; test: whole plant or invertebrate; assay type: in vivo; conditions: 24 h, read-out: PYRIOR 1DP Disease Control at 100 ppm
Leptosphaeria nodorum = test: Wheat Glume Blotch (LEPTNO) fungicidal activity; assay type: in vivo; conditions: Parastagonospora nodorum, 24 h, 1 Day Protectant, read-out: LEPTNO 1DP Disease Control at 100 ppm
Description: Technical grades of materials were dissolved in acetone, which were then mixed with nine volumes of water containing 110 ppm Triton X-100. The fungicide solutions were applied onto wheat seedlings using an automated booth sprayer to run-off. All sprayed plants were allowed to air dry prior to further handling. All fungicides were evaluated using the aforementioned method for their activity vs. all target diseases. Wheat leaf blotch and brown rust activity were also evaluated using track spray applications, in which case the fungicides were formulated as EC formulations, containing 0.1% Trycol 5941 in the spray solutions. Wheat plants (variety Yuma) were grown from seed in a greenhouse in 50% mineral soil/50% soil-less Metro mix until the first leaf was fully emerged, with 7-10 seedlings per pot. These plants were inoculated with an aqueous spore suspension of Septoria tritici either prior to or after fungicide treatments. […] When disease symptoms were fully expressed on the 1st leaves of untreated plants, infection levels were assessed on a scale of 0 to 100 percent disease severity. Percent disease control was calculated using the ratio of disease severity on treated plants relative to untreated plants. […]

Venturia inaequalis = test: Apple Scab (VENTIN) fungicidal activity; assay type: in vivo; conditions: 24 h, 1 Day Protectant, read-out: VENTIN 1DP Disease Control at 100 ppm
Uncinula necator = test: Grape Powdery Mildew (UNCINE) fungicidal activity; assay type: in vivo; conditions: Erysiphe necator, 24 h, 1 Day Protectant, read-out: UNCINE 1DP Disease Control at 100 ppm
Cercospora beticola = test: Leaf Spot of Sugar Beets (CERCBE) fungicidal activity; assay type: in vivo; conditions: topical, 24 h, 1 Day Protectant, sugar beet plants, read-out: CERCBE Disease Control 1DP
Rhyncosporium secalis = test: Barley Scald (RHYNSE) fungicidal activity; assay type: in vivo; conditions: Hordeum vulgare, 24 h, 1 Day Protectant, read-out: RHYNSE 1DP Disease Control at 100 ppm
[4] = tested on: Mycosphaerella graminicola; Anamorph: Septoria tritici; test: Leaf Blotch of Wheat (SEPTTR) fungicidal activity; assay type: in vivo; conditions: Zymoseptoria tritici; for pest or weed control at 100 ppm: rate 100 ppm (high volume application); for pest or weed control at 121.5 g/ha: rate 121.5 g/H (low volume application)
Description: as §1, with “plants.” for “plants. Wheat plants (variety Yuma) were grown from seed in a greenhouse in 50% mineral soil/50% soil-less Metro mix until the first leaf was fully emerged, with 7-10 seedlings per pot. These plants were inoculated with an aqueous spore suspension of Puccinia triticina either prior to or after fungicide treatments. After inoculation the plants were kept in a dark dew room at 22° C. with 100% relative humidity overnight to permit spores to germinate and infect the leaf. The plants were then transferred to a greenhouse set at 24° C. for disease to develop. Fungicide formulation, application and disease assessment followed the procedures as described in the Example A.”

Phakopsora pachyrhizi = test: Asian Soybean Rust (PHAKPA) fungicidal activity; assay type: in vivo; conditions: topical, soybean plants
Description: Technical grades of materials were dissolved in acetone, which were then mixed with nine volumes of water containing 0.011% Tween 20. The fungicide solutions were applied onto soybean seedlings using an automated booth sprayer to run-off. All sprayed plants were allowed to air dry prior to further handling.
Soybean plants (variety Williams 82) were grown in soil-less Metro mix, with one plant per pot. Two weeks old seedlings were used for testing. Plants were inoculated either 3 days prior to or 1 day after fungicide treatments. Plants were incubated for 24 h in a dark dew room at 22° C. and 100% RH then transferred to a growth room at 23° C. for disease to develop. Disease severity was assessed on the sprayed leaves.

[5] = 24 h, 1 Day Protectant, read-out: PUCCRT 1DP disease control
[6] = 72 h, 3 Day Curative, read-out: PUCCRT 3DC disease control
[7] = 24 h, 1 Day Protectant, read-out: SEPTTR 1DP disease control
[8] = 72 h, 3 Day Curative, read-out: SEPTTR 3DC disease control

Structure (SMILES): CO[C@@H]1[C@@H](CCC(C)C)CCC[C@H](N)C(=O)O[C@H]1C.Cl
- melting point: 218 to 220 °C

Structure (SMILES): COc1ccnc(C(=O)N[C@H]2CCC[C@H](CCC(C)C)[C@@H](OC(=O)C3CCCC3)[C@H](C)OC2=O)c1OCOC(C)=O [F96]
- pest or weed control at 100 ppm (Alternaria solani): 80 to 100%
- pest or weed control at 100 ppm (Erysiphe cichoracearum): 80 to 100%
- pest or weed control at 100 ppm [1]: 80 to 100%
- pest or weed control at 100 ppm (Puccinia triticina; [5]): 80 to 100%
- pest or weed control at 121.5 g/ha (Puccinia triticina; [5]): 80 to 100%
- pest or weed control at 100 ppm (Puccinia triticina; [6]): 80 to 100%
- pest or weed control at 121.5 g/ha (Puccinia triticina; [6]): 0 to 80%
- pest or weed control at 100 ppm [2]: 0 to 80%
- pest or weed control at 100 ppm [3]: 80 to 100%
- pest or weed control at 100 ppm (Leptosphaeria nodorum): 80 to 100%
- pest or weed control at 100 ppm (Venturia inaequalis): 0 to 80%
- pest or weed control at 100 ppm (Uncinula necator): 80 to 100%
- pest or weed control at 100 ppm (Cercospora beticola): 80 to 100%
- pest or weed control at 100 ppm (Rhyncosporium secalis): 80 to 100%
- pest or weed control at 100 ppm [4, 7]: 80 to 100%
- pest or weed control at 121.5 g/ha [4, 7]: 80 to 100%
- pest or weed control at 100 ppm [4, 8]: 80 to 100%
- pest or weed control at 121.5 g/ha [4, 8]: 80 to 100%
- pest or weed control at 25 ppm (Phakopsora pachyrhizi; 24 h, 1 Day Protectant, read-out: PHAKPA Disease Control 1DP): 80 to 100%
- pest or weed control at 25 ppm (Phakopsora pachyrhizi; 72 h, 3 Day Curative, read-out: PHAKPA Disease Control 3DC): 0 to 80%

Structure (SMILES): COc1ccnc(C(=O)N[C@H]2CCC[C@H](Cc3ccc(F)cc3)[C@@H](OCC3CC3)[C@H](C)OC2=O)c1O [F10]
- pest or weed control at 100 ppm (Puccinia triticina; [5]): 80 to 100%
- pest or weed control at 121.5 g/ha (Puccinia triticina; [5]): 80 to 100%
- pest or weed control at 100 ppm (Puccinia triticina; [6]): 80 to 100%
- pest or weed control at 121.5 g/ha (Puccinia triticina; [6]): 0 to 80%
- pest or weed control at 100 ppm [4, 7]: 80 to 100%
- pest or weed control at 121.5 g/ha [4, 7]: 80 to 100%
- pest or weed control at 100 ppm [4, 8]: 80 to 100%
- pest or weed control at 121.5 g/ha [4, 8]: 80 to 100%
